As usually defined, the EC50 is the concentration that produces a half-maximal response. Low readings indicate greater potency, high ones weaker potency.

The target of this test is Nicotinamide phosphoribosyltransferase (Homo sapiens, UniProt P43490). Put plainly: NAMPT Enzyme Activating Effect (In Vitro Cell-Free Enzyme Assay.

SMILES strings stand for the structures.

Chain of Nicotinamide phosphoribosyltransferase (P43490 whole entry): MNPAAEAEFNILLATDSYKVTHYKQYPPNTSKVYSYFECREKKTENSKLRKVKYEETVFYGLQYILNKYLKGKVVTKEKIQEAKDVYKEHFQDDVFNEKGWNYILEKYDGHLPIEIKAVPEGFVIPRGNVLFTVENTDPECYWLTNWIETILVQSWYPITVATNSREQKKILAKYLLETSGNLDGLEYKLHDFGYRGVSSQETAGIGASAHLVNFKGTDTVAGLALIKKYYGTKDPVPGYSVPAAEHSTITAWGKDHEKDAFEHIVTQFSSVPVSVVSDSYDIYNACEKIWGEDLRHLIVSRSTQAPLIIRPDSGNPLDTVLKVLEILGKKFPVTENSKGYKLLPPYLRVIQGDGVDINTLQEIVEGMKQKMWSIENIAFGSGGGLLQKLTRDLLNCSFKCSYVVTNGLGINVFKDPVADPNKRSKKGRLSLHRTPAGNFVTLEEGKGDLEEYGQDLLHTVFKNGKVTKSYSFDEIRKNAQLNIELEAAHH

The compound `O=C(NCc1ccncc1)Nc1ccn2nc(-c3ccccc3)nc2c1` [US11918568, Example 15] registered an EC50 of 230 nM.

Values taken from BindingDB's records for patent US11918568 (Sanford Burnham Prebys Medical Discovery Institute, 2024).
